The source of these data is ChEMBL document CHEMBL1157539, “Thousands of chemical starting points for antimalarial lead identification” (Nature, 2010).

This assay relates to Plasmodium falciparum. Nature of the assay: GSK_TCMDC: Inhibition of Plasmodium falciparum 3D7 in whole erythrocytes, using parasite LDH activity as an index of growth. Type of assay: functional, organism-based. To be noted: Plasmodium falciparum, 3D7.

`Cc1cccc2nc(-c3cccc(-c4ccc(NC(=O)Nc5ccc(Cl)cc5)cc4)c3)[nH]c12` showed an XC50 of 0.199 µM.

Compound `CCN(CC)CCN(Cc1ccc(-c2ccc(C(F)(F)F)cc2)cc1)C(=O)Cn1c(CCc2ccc(F)c(F)c2)cc(=O)c2ccccc21` showed an XC50 of 0.89 µM.

On to `CC(C)c1cc(N)c2cc(NC(=O)COCC(=O)Nc3ccc4nc(C(C)C)cc(N)c4c3)ccc2n1`, for which the XC50 is 0.216 µM.

In the case of `CC1CCC(NCc2c(O)ccc3ccccc23)CC1` (centres undefined), the XC50 is 0.772 µM.

`COc1ccc(CNc2ccnc3cc(OC)ccc23)cc1` yielded an XC50 of 0.766 µM.

Compound `COc1ccc2nc3cc(Cl)ccc3c(NCCN(C)C)c2c1` displayed an XC50 of 0.188 µM.

For `CS(=O)(=O)NCCCNCc1cccc(-c2cccc(-c3nc4cc(F)ccc4[nH]3)c2)c1`, the XC50 came out at 0.938 µM.

Take `O=C(Cn1c(CCc2cccc(F)c2F)nc(=O)c2ccccc21)N(CCCN1CCCCC1)Cc1ccc(-c2ccc(C(F)(F)F)cc2)cc1`: the XC50 came out at 0.762 µM.

In turn, `CC(C)Cn1cc(C2CCN(CCN3CCC(CNC(=O)c4ccc(NC(=O)c5cc(Cl)cc(Cl)c5)cc4)CC3)CC2)c2ccccc21` yielded an XC50 of 0.693 µM.

For the compound `CC(C)n1cc2c(ccc3nc(N)nc(N)c32)n1`, the XC50 turned out to be 0.0369 µM.

`CCc1c(CCNCCCCCCNCCc2ccc(OC)cc2)ccc(OC)c1OC` had an XC50 of 0.871 µM.

Compound `O=C(Nc1cc(C(F)(F)F)cc(C(F)(F)F)c1)N1CCC(CN2CCC(c3c[nH]c4ccccc34)CC2)CC1` registered an XC50 of 0.187 µM.

`Cc1cccc2nc(-c3ccc(-c4ccc(CNCC(C)C)cc4)cc3)[nH]c12`: the XC50 amounted to 0.405 µM.

The compound `CC(C)COc1ccc(Cl)cc1Cc1nc(-c2nc3ccc(CN4CCCCC4)cc3[nH]2)co1` showed an XC50 of 0.738 µM.

On to `COc1ccc(CNCc2ccccc2)cc1-c1ccc(S(=O)(=O)NCCN2CCCC2)cc1`, for which the XC50 turned out to be 0.824 µM.

As for `CCOC(=O)c1nc(-c2ccc(Cl)cc2)[nH]c1NC(=S)NCCCN1CCOCC1`, the XC50 came to 0.868 µM.

Regarding `O=C(Nc1ccc(OC2CCN(Cc3ccc(F)cc3)CC2)c(Cl)c1)c1ccc(F)cc1`, the XC50 worked out at 0.188 µM.

`CCCCOC(=O)C1=C(C)NC2=C(C(=O)CCC2)C1c1ccc(OC)c(Br)c1` (centres undefined) yielded an XC50 of 0.603 µM.

`COc1cc(CN=C(S)NN=C(C)c2ccccn2)cc(OC)c1OC` gave an XC50 of 0.396 µM.

For `Fc1ccc2[nH]c(-c3cccc(-c4cccc(CNCCc5ccncc5)c4)c3)nc2c1`, the XC50 is 0.17 µM.

In the case of `COc1cc(NC(=O)CCCN2CCN(c3cccc(Cl)c3Cl)CC2)ccc1N1CCN(C(C)C)CC1`, the XC50 turned out to be 0.946 µM.

`Oc1c(C=Nn2cnnc2)sc2ccccc12`: the XC50 worked out at 0.911 µM.

`CC1(C)NC(N)=NC(=N)N1OCCCNC(=O)c1ccc(C(=O)NCCCON2C(=N)N=C(N)NC2(C)C)cc1` came in with an XC50 of 0.0216 µM.

`NC(=O)C1CCN(Cc2cccc(-c3cccc(-c4nc5cc(F)ccc5[nH]4)c3)c2)CC1` showed an XC50 of 0.853 µM.

Compound `COc1ccc(O)cc1Cc1cnc2nc(N)nc(N)c2c1C` gave an XC50 of 0.00825 µM.

For the compound `COC(=O)c1cccc(CNCc2ccc(-c3ccc(-c4nc5cc(F)ccc5[nH]4)cc3)cc2)c1`, the XC50 turned out to be 0.237 µM.

As for `COc1cc(-c2cc3cc(Cl)c(Cl)cc3[nH]2)ccc1C(=O)NC1CCN(Cc2ccccc2)CC1`, the XC50 worked out at 0.531 µM.

`Cc1ccc(Nc2nccc(NCC(O)c3cccc(F)c3)n2)cc1` (centres undefined) came in with an XC50 of 0.675 µM.

For the compound `CC[C@H]1CN(Cc2ccccc2Br)CC[C@H]1CCCc1ccnc2ccc(O)cc12`, the XC50 worked out at 1 µM.

In the case of `CN(C)CCN(C)Cc1cccc(-c2ccc3c(Nc4ccc(F)cc4Cl)ccnc3c2)c1`, the XC50 amounted to 0.11 µM.

`Cc1noc(C)c1-c1cccc(CNCc2cccc(-c3cccc(-c4nc5cc(C(F)(F)F)ccc5[nH]4)c3)c2)c1`: the XC50 amounted to 0.456 µM.

With `CCN(CCCN1CCCCC1)c1cc(C)nc(Nc2cc(F)cc(F)c2)n1`, the XC50 was 0.57 µM.

`Cc1c(S(=O)(=O)Nc2ccc3ccn(CCN(C)C)c3c2)sc2ccc(Cl)cc12`: the XC50 stood at 0.921 µM.

Turning to `CCCCN(C)CC#Cc1ccc(-c2ccc3[nH]c(C)c(Br)c(=O)c3c2)cn1`, the XC50 worked out at 0.647 µM.

`Cc1nc(N)nc(N)c1-c1cc(Cl)c(N)c(Cl)c1`: the XC50 was determined as 0.805 µM.

Compound `COc1ccc(-c2ccc(NC(=O)c3cccc(Cl)c3)cc2)cc1CN1CCCN(C)CC1` came in with an XC50 of 0.603 µM.

As for `CC(C)COc1cc(C(=O)Nc2cnc3ccccc3c2)ccc1[N+](=O)[O-]`, the XC50 amounted to 0.776 µM.

`O=C(Nc1ccccc1-c1ccccc1)C1CCCN1C(=O)Nc1ccc(Cl)cc1` (centres undefined) showed an XC50 of 0.793 µM.

The compound `Cc1cc(=NN=Cc2ccccc2)c2cc(F)ccc2[nH]1` yielded an XC50 of 0.579 µM.

`O=C(Cc1c[nH]cn1)Nc1ccc(-c2cccc(-c3nc4cc(F)ccc4[nH]3)c2)cc1` showed an XC50 of 0.797 µM.

`Cc1ccc(CNC(=O)c2cnc(N3CCN(c4ccncc4)CC3)c(Cl)c2)cc1` returned an XC50 of 1.29 µM.

As for `FC(F)(F)c1cccc(CNC2CCN(CC3CCCCC3)CC2)c1`, the XC50 stood at 0.575 µM.

For `Cc1nn(CC(O)Cn2c3ccc(Br)cc3c3cc(Br)ccc32)c(C)c1Br` (centres undefined), the XC50 was 0.713 µM.

The compound `O=C(Nc1cccc(N2CCC(NCCCc3ccncc3)CC2)c1)c1cccc(C(F)(F)F)c1` gave an XC50 of 0.853 µM.

For `Cc1cc(SC(C)(C)C)cc2c(Cl)c(C(N)=O)cnc12`, the XC50 was 1.09 µM.

Regarding `CN1CCC(NCc2ccc(-c3cccc(S(=O)(=O)NCC4CCCO4)c3)cc2)CC1` (centres undefined), the XC50 was found to be 0.939 µM.

In the case of `Cc1cc(Nc2ccc(OCc3ccccc3Cl)cc2)c2cc(Cl)ccc2n1`, the XC50 is 0.433 µM.

`Cc1c(C)n(Cc2ccccc2)c2ncnc(OC3CCN(CC(=O)NCC4CC4)CC3)c12` had an XC50 of 1.12 µM.

`CCCCOc1c(CNCCCCCCNCc2ccc3ccccc3c2OCCCC)ccc2ccccc12` displayed an XC50 of 0.869 µM.

Consider `COc1cc(Cc2cnc(N)nc2N)cc(OC(C)C)c1OC`, for which the XC50 is 1.04 µM.

For the compound `CCCC(C)Nc1nc(C)cc(NCCC(=O)Nc2ccccc2)n1` (centres undefined), the XC50 turned out to be 0.959 µM.

On to `Cc1cccc2nc(-c3ccc(-c4cccc(NC(=O)Nc5ccc(F)c(F)c5F)c4)cc3)[nH]c12`, for which the XC50 amounted to 0.338 µM.

Compound `COc1cc(NC(=O)c2cccs2)c(C(=O)NCc2ccc(C)cc2)cc1OC` came in with an XC50 of 1.36 µM.

`O=C(Nc1ccc(-c2ccc(-c3nc4ccccc4[nH]3)s2)cc1)Nc1ccsc1` yielded an XC50 of 0.279 µM.

As for `COc1ccc(CNC2Cc3ccccc3C2)cc1-c1ccc(S(=O)(=O)NCCN2CCCC2)c(F)c1`, the XC50 came to 0.719 µM.

For the compound `Cn1c(=N)n(CC(=O)OCc2ccc(OCc3ccccc3)cc2)c2ccccc21`, the XC50 was 0.0819 µM.

Take `CNc1ccc(CNCc2ccc(-c3ccc(-c4nc5cccc(C)c5[nH]4)s3)cc2)cc1`: the XC50 amounted to 0.661 µM.

As for `FC(F)(F)c1cc(C(F)(F)F)c2cc(CNCCCNc3nc4ccccc4[nH]3)[nH]c2c1`, the XC50 came out at 0.141 µM.

In turn, `CCn1c(Cc2ccccc2)nnc1Sc1ccc([N+](=O)[O-])c(C#N)c1` had an XC50 of 1.01 µM.

`Clc1ccc(CNc2nc(NCCc3c[nH]cn3)nc(Nc3ccc4c(c3)OCO4)n2)cc1` had an XC50 of 0.955 µM.

As to `CC(C)N(Cc1ccccc1)C(=O)CN1C(=O)COc2ccc(S(=O)(=O)N3CCCCCC3)cc21`, the XC50 was 0.253 µM.

Regarding `N=c1n(Cc2ccc(Cl)cc2)c2ccccc2n1CC(O)c1ccc(Cl)c(Cl)c1` (centres undefined), the XC50 amounted to 0.677 µM.

Compound `Nc1ncc(-c2cn[nH]c2)cc1-c1nc2ccc(F)cc2[nH]1` registered an XC50 of 0.729 µM.

For the compound `CN1CCC(C(=O)N(Cc2ccc(-c3ccc(CNCCc4ccccc4)cn3)cc2)Cc2cccc(F)c2)CC1`, the XC50 was found to be 0.935 µM.
